What all share (experiment): NCI tumour cell line growth inhibition, 48 h
For experiment [1], the system named is ACHN renal.
Experiment [2] deals with IGROV1 ovarian.
The subject of experiment [3] is LOX IMVI melanoma.
Experiment [4] has as its system SK-MEL-5 melanoma.
Experiment [5] has as its system OVCAR-4 ovarian.
Experiment [6] has as its system RXF 393 renal.
In experiment [7] the test system is HCT-15 colon.
For experiment [8], the system named is CAKI-1 renal.
The subject of experiment [9] is HCC-2998 colon.
Experiment [10] deals with BT-549 breast.

This is an account of results in PubChem BioAssay (NCI).

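Interpolation was linear, between the two tested concentrations surrounding the appropriate level; five concentrations were tested over 48 hours in 96-well plates. Here, GI50 denotes the concentration required for 50% inhibition of growth. At the TGI there is no net growth.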

Regarding `NNC(=S)N/N=C(/C(=O)Nc1cc(Cl)ccc1Cl)C1C(=O)Nc2ccccc2S1=O` (centres undefined), the TGI in [1], in experiment [2], in experiment [3], in [4], in experiment [5] and in [6] was greater than 100 µM each time. Also, the TGI in [7], in [8] and in experiment [9] was greater than 100 µM throughout.

For the molecule `O=C1C2=Nc3ccccc3C(O)N2c2ccccc21` (centres undefined), the TGI was greater than 100 µM in experiment [1]; greater than 100 µM in experiment [2]; 13.1 µM in experiment [3]; 3.76 µM in [4]; greater than 100 µM in experiment [10]; greater than 100 µM in experiment [5]. In addition, the figures for the TGI in experiment [7], in experiment [8] and in [9] were greater than 100 µM, greater than 100 µM and greater than 94.3 µM, respectively.

In the case of `COc1cccc2c1-c1c(c3ccc([N+](=O)[O-])cc3c(=O)n1CCCCl)C2=O`, the GI50 was 1.23 µM in experiment [3], 0.791 µM in experiment [4], 17.1 µM in experiment [10] and 1.13 µM in [8]. Besides, the TGI was greater than 50 µM in [3], greater than 50 µM in experiment [4], greater than 50 µM in experiment [10] and 24.1 µM in experiment [8].

In the case of `O=c1cc(N2CCNCC2)oc2c(-c3ccccc3)cccc12`, the GI50 in experiment [1] was 34.1 µM; in experiment [2], 31.8 µM; in experiment [3], 31.7 µM; in [4] it was 14.8 µM; in experiment [10], greater than 100 µM; in experiment [5], 52.7 µM. Further, the values for the GI50 in [7], in [8] and in experiment [9] were 34.7 µM, 26.8 µM and 18.1 µM, respectively. Also, the TGI in experiment [1] is greater than 100 µM; in experiment [2] it was greater than 100 µM; in [3] it was greater than 100 µM; in [4] it was 32.5 µM; in [10] it was greater than 100 µM; in experiment [5], greater than 100 µM. Besides, the TGI in [7] was greater than 100 µM; in experiment [8], greater than 100 µM; in [9] it was 39.8 µM.

Turning to `C[C@]12CCc3nonc3C1CC[C@@H]1C2CC[C@]2(C)NC(=O)CCC12` (some centres undefined), the TGI in experiment [1], in [2], in experiment [3], in [4], in [5] and in experiment [6] was greater than 100 µM throughout. The TGI in experiment [7] and in experiment [8] was greater than 100 µM throughout.

On to `O=C1OCCC1C(O)C1c2ccccc2-c2ccccc21` (centres undefined), for which the TGI in experiment [1], in [2], in experiment [5] and in experiment [8] was greater than 100 µM in each case.

With `CN[C@@H](C)[C@@H](N)c1ccccc1`, the TGI in experiment [1], in experiment [2], in experiment [3], in experiment [4], in [6] and in [7] was greater than 100 µM in each case. The TGI in experiment [8] and in [9] was greater than 100 µM in each case.

For `CN(C)CCNC(=O)Cn1cc([N+](=O)[O-])c(=O)c2ccccc21`, the TGI in experiment [1], in experiment [2], in experiment [4], in experiment [10], in [7] and in experiment [8] was greater than 100 µM each time. The TGI in [9] is greater than 100 µM.

For the molecule `O=C1c2ccccc2C(=O)c2c(NCCNCCO)ccc(O)c21`, the TGI in experiment [1] stood at 11.2 µM; in [2], 13.4 µM; in experiment [3] it was 2.85 µM; in experiment [4], 12.7 µM; in experiment [5], 6.53 µM; in experiment [6] it was 7.92 µM. The figures for the TGI in experiment [7], in experiment [8] and in experiment [9] were 13.7 µM, 11.5 µM and 17.8 µM, respectively.

Turning to `O=c1cccccc1NCCCCCCNc1cccccc1=O`, the TGI in experiment [1], in [2], in [3], in experiment [4], in [5] and in experiment [7] was greater than 100 µM each time. Moreover, the TGI in experiment [8] and in experiment [9] was greater than 100 µM each time.

For `COc1ccc(C2=NN(C(=O)c3cc(OC)c(OC)c(OC)c3)C(c3ccc(Cl)cc3)C2)cc1OC` (centres undefined), the GI50 in experiment [1] is 2.32 µM; in experiment [2] it was 2.11 µM; in experiment [3], 3.63 µM; in experiment [4] it was 0.549 µM; in experiment [10], 2.95 µM; in experiment [5], 5.22 µM. Also, the GI50 was 1.79 µM in experiment [7], 1.14 µM in experiment [8] and 7.61 µM in experiment [9]. Moreover, the TGI in experiment [1] is 41.3 µM; in experiment [2] it was 40 µM; in experiment [3] it was greater than 100 µM; in experiment [4] it was 15.6 µM; in [10], 71.6 µM; in experiment [5] it was 49.6 µM. Also, the TGI was greater than 100 µM in experiment [7], greater than 54.1 µM in experiment [8] and greater than 100 µM in experiment [9].

Consider `CC(=O)O[C@]1(C)OC(=O)[C@@H](C)N1[N+](=O)[O-]`, for which the TGI in experiment [1], in experiment [2], in experiment [3], in [4], in experiment [5] and in experiment [6] was greater than 100 µM throughout. Moreover, the TGI in experiment [7] and in experiment [9] was greater than 100 µM each time.

With `OCC1OC(OCC(O)C(O)C(O)C(/C=N/Nc2ccccc2)=N/Nc2ccccc2)C(O)C(O)C1O` (centres undefined), the TGI in [1], in experiment [2], in experiment [3], in experiment [4], in experiment [10] and in experiment [7] was greater than 100 µM in each case. Further, the TGI in [8] and in experiment [9] was greater than 100 µM each time.

On to `CC1(C)CCc2cc3c(cc2O1)OCC1c2cc4c(cc2OC31)OCO4` (centres undefined), for which the TGI in experiment [1], in experiment [2], in experiment [3], in experiment [4], in [5] and in experiment [6] was greater than 100 µM each time. For the same molecule, the TGI in [7], in experiment [8] and in [9] was greater than 100 µM throughout.

As for `COc1ccc(N=Nc2c(-c3ccccc3)nn(C(=O)CC(=O)Nc3cccc(Cl)c3)c2-c2ccccc2)cc1`, the TGI in [1], in [2], in experiment [3], in experiment [4], in experiment [5] and in experiment [7] was greater than 100 µM throughout. The TGI in experiment [8] is greater than 100 µM; in experiment [9], 80.4 µM.

As to `Cc1ccc(Nc2n[nH]c(=S)s2)cc1`, the TGI in experiment [1], in [3], in [4], in experiment [6], in experiment [7] and in experiment [8] was greater than 100 µM throughout. The same molecule registered a TGI in [9] greater than 100 µM.

Consider `CN=C(NC#N)NCCSCc1nc[nH]c1C`, for which the TGI in [1], in experiment [2], in [3], in experiment [4], in experiment [5] and in [6] was greater than 100 µM throughout. In addition, the TGI in [7], in experiment [8] and in experiment [9] was greater than 100 µM throughout.

As for `O=C(c1cc2ccccc2o1)N(Cc1ccccc1)c1ccccc1`, the TGI in experiment [1] was greater than 100 µM; in experiment [2], greater than 100 µM; in experiment [3], 39 µM; in [4], 31.2 µM; in experiment [6], 43 µM; in experiment [7], 41 µM. Further, the TGI in [8] turned out to be 55.5 µM; in experiment [9], 46.1 µM.

On to `CCSC1(SCC)CC(Cc2ccc(OC)cc2)N(C=NC(C)(C)C)C1` (centres undefined), for which the TGI in [1] was greater than 100 µM; in [2] it was greater than 100 µM; in experiment [3] it was 32.4 µM; in experiment [4] it was 31.3 µM; in experiment [5], greater than 100 µM; in experiment [6], 40.9 µM. For the same molecule, the values for the TGI in experiment [7], in experiment [8] and in experiment [9] were greater than 100 µM, greater than 100 µM and 40.2 µM, respectively.

Regarding `CCOC(=O)/C=C/c1cc2cc(-c3csc4ccccc34)ccc2[nH]1`, the GI50 in experiment [1] is 7.15 µM; in experiment [2], 4.62 µM; in experiment [3], 5 µM; in experiment [4], 4.52 µM; in experiment [5], 7.1 µM; in experiment [6] it was 3.86 µM. Moreover, the GI50 was 3.59 µM in experiment [7], 3.13 µM in [8] and 14.4 µM in experiment [9]. Besides, the TGI in experiment [1] was 20.1 µM; in [2], 17.4 µM; in experiment [3], 18.9 µM; in [4], 16.6 µM; in [5] it was 19.8 µM; in experiment [7], 15.8 µM. Further, the TGI worked out at 15.2 µM in experiment [8] and 30.2 µM in experiment [9].

Turning to `Cn1nnnc1N/N=C/c1ccccc1`, the TGI in experiment [1], in [2], in experiment [3], in experiment [4], in experiment [5] and in experiment [6] was greater than 10 µM in each case. Besides, the TGI in [7], in [8] and in experiment [9] was greater than 10 µM each time.

As for `CCOC(=O)C1=C(O)CSC1=Nc1ccccc1`, the TGI in experiment [1], in [2], in experiment [3], in [5], in experiment [7] and in experiment [8] was greater than 100 µM in each case. Moreover, the TGI in experiment [9] was greater than 100 µM.

For `CC(C)(C)CC(C)(C)c1cc2c(O)c(c1)Cc1cc(C(C)(C)CC(C)(C)C)cc(c1O)Cc1cc(C(C)(C)CC(C)(C)C)cc(c1O)Cc1cc(C(C)(C)CC(C)(C)C)cc(c1O)Cc1cc(C(C)(C)CC(C)(C)C)cc(c1O)Cc1cc(C(C)(C)CC(C)(C)C)cc(c1O)C2`, the TGI in [1], in experiment [2], in [4], in [5], in [6] and in experiment [7] was greater than 100 µM each time. In experiment [9], the TGI is greater than 100 µM.

As for `C=CC(C=O)C1(O)CCOC(=O)/C1=C\N` (centres undefined), the GI50 in experiment [1] is greater than 100 µM; in experiment [2], greater than 100 µM; in [3], greater than 100 µM; in [4] it was 62.4 µM; in experiment [7], greater than 100 µM; in experiment [8], greater than 100 µM. Besides, the GI50 in experiment [9] is greater than 100 µM. In addition, the TGI in experiment [1], in experiment [2], in experiment [3], in experiment [4], in [7] and in [8] was greater than 100 µM in each case. The molecule also came in with a TGI in [9] greater than 100 µM.

As to `O=C1N(c2ccccc2)C(=O)C2(SC=NN2Cc2ccccc2)N1c1ccccc1` (centres undefined), the TGI in [1], in experiment [2], in experiment [3], in [4], in experiment [5] and in experiment [6] was greater than 100 µM each time. In addition, the TGI in experiment [8] and in experiment [9] was greater than 100 µM throughout.

For `COc1ccc(C(=O)C(C(=O)C(=O)Nc2ccc(Cl)c(Cl)c2)c2ccc(OC)cc2)cc1` (centres undefined), the TGI in experiment [1], in experiment [2], in [3], in [4], in [5] and in experiment [6] was greater than 100 µM in each case. Also, the TGI in [7], in experiment [8] and in experiment [9] was greater than 100 µM each time.

With `CC/C(=C(/CC)c1ccc([O-])cc1)c1ccc([O-])cc1.CC/C(=C(\CC)c1ccc([O-])cc1)c1ccc([O-])cc1.O=C([CH-]C(=O)c1ccccc1)c1ccccc1.O=C([CH-]C(=O)c1ccccc1)c1ccccc1.O=C([CH-]C(=O)c1ccccc1)c1ccccc1.O=C([CH-]C(=O)c1ccccc1)c1ccccc1.[Ti+4].[Ti+4]`, the GI50 was 35.2 µM in experiment [1]; 41.9 µM in experiment [2]; 43 µM in experiment [3]; 42.9 µM in [5]; 14.7 µM in experiment [6]; 39.4 µM in experiment [7]. The GI50 in experiment [8] was 23.5 µM; in [9], 45.7 µM. Besides, the TGI was greater than 100 µM in [1]; greater than 100 µM in [2]; greater than 100 µM in [3]; greater than 100 µM in [5]; 42.3 µM in [6]; greater than 100 µM in experiment [7]. Moreover, the TGI in experiment [8] was 58.5 µM; in [9], greater than 100 µM.
